Paper PMC12257394, “Design, Synthesis, and Biological Evaluation of Ferrocenyl–Cyclo-(Gly‑L‑Pro) Hybrids Sensitizing Multidrug-Resistant Cancer Cells to Anticancer Agents” (ACS Medicinal Chemistry Letters, 2025)

Columns and labels:
MRC-5 fibroblasts = experiment: Neutral red uptake viability assay, MRC-5; format: cell-based, human; conditions: MRC-5, 10 μM, 72 h exposure, n = 3, ± SD
Procedure: (§1) The normal lung fibroblast MRC-5 and colorectal adenocarcinoma SW620 cell lines used in this experiment were purchased from American Type Culture Collection (USA) via LGC […]
(§2) Standards. Multidrug-resistant variants of SW620 cells were developed in our laboratory as described previously.10, 11 All cells were cultured under standard conditions (37°C, 5% CO2, 100% humidity) in high-glucose DMEM supplemented with GlutaMaxTM, HEPES (ThermoFisher Scientific, USA), and 10% fetal bovine serum (EURx, Poland). Cells were routinely tested for potential Mycoplasma contamination using the MycoProbe Mycoplasma Detection kit (R&D System, USA).
(§3) In total, 104 cells in 100 µL of complete medium were plated per well of a 96-well plate and left overnight to allow cells to adhere to the surface. Then, the cells were exposed to a desired concentration of tested compound(s). Stock solutions were prepared in DMSO and used immediately. The final DMSO concentration was constant and nontoxic (0.1% v/v). After 70-h incubation, neutral red was added to the final concentration of 1 mM. After another 2 h, the medium was aspirated, and cells were washed twice with PBS. Dye was released using 100 µL of a solubilizer (1% acetic acid in 50% ethanol) on an orbital shaker (10 min). Absorbance was read at 540 nm using EnVision Multilabel Plate Reader (Perkin Elmer, USA). Results were expressed as % of control. The IC50 parameters were calculated using GraphPad Prism version 10 (GraphPad Software, Boston, Massachusetts USA). […]
(§4) All experiments were performed in triplicate (n = 3).

SW620 cells [1] = experiment: MDR reversal assay (coadministration with anticancer drug), SW620; format: cell-based, human; conditions: SW620, drug alone, n = 3
Excerpt: (§5) We investigated the potency of 4a–e to inhibit ABC transporters (ABCB1, ABCC1, and ABCG2) by determining their enhancement of reversal potency (ERP) values. ERP represents fold changes in the IC50 values of anticancer drugs in multidrug-resistant cancer sublines (ABCB1-overexpressing SW620D, SW620E, and SW620V; ABCC1-overexpressing SW620M; ABCG2-overexpressing SW620C and SW620Mito) exposed to a combination of the investigated compounds and anticancer agents at equimolar concentrations, compared with values obtained with drugs alone (Tables S2 and S3 and Figure ).
as §2
(§6) In total, 104 cells in 100 µL of complete medium were plated per well of a 96-well plate and left overnight to allow cells to adhere to the surface. Then, the cells were exposed to a desired concentration of tested compound(s). Stock solutions were prepared in DMSO and used immediately. The final DMSO concentration was constant and nontoxic (0.1% v/v). After 70-h incubation, neutral red was added to the final concentration of 1 mM. After another 2 h, the medium was aspirated, and cells were washed twice with PBS. Dye was released using 100 µL of a solubilizer (1% acetic acid in 50% ethanol) on an orbital shaker (10 min). Absorbance was read at 540 nm using EnVision Multilabel Plate Reader (Perkin Elmer, USA). Results were expressed as % of control. The IC50 parameters were calculated using GraphPad Prism version 10 (GraphPad Software, Boston, Massachusetts USA).
(§7) The enhancement of reversal potency (ERP) value determination
(§8) For MDR reversal assays, cytotoxic agents were co-administered with compounds 4a–4e at equimolar concentrations in a range of 10 nM to 100 µM. IC₅₀ values were determined in ABCB1-overexpressing SW620 cell line variants. The enhancement of reversal potency (ERP) was calculated using the following formula: ERP = IC₅₀(drug)MDR / IC₅₀(drug + compound)MDR. All experiments were performed in triplicate (n = 3).

SW620 cells [2] = experiment: Neutral red uptake viability assay, SW620; format: cell-based, human; conditions: SW620, substance alone (xlsx), read-out: SW620 IC50
Procedure: (§9) To evaluate this aspect, we investigated the viability of SW620 colon cancer cells and their multidrug-resistant variants (overexpressing ABCB1, ABCC1, and ABCG2) exposed to 1 and 10 μM 4a–e using a neutral red uptake assay (Table ). In general, compounds 4a–e exerted little or no cytotoxic effect on either SW620 or multidrug-resistant sublines even at 10 μM, with the remarkable exception of SW620C (cisplatin-selected variant of SW620) cells, which turned out to be relatively susceptible toward ferrocenyl 4a–c. […] This trend may reflect steric or electronic contributions to cellular uptake or interaction with intracellular targets. […] However, since E/Z isomeric data are currently available only for compound 4c, this hypothesis requires validation. To quantify this effect, IC50 values were determined (Table ). […]
as §1, §2, §3, §4

[3] = test system: ABCG2-overexpressing SW620Mito cells; experiment: MDR reversal assay (ERP), SW620Mito; format: cell-based, human; conditions: Homo sapiens; SW620Mito, drug alone, n = 3
Excerpt: as §5, §2, §6, §7, §8

[4] = test system: SW620Mito cells (mitoxantrone-resistant); experiment: Neutral red uptake viability assay, SW620Mito; format: cell-based, human; conditions: Homo sapiens, substance alone (xlsx), read-out: SW620Mito IC50
Procedure: as §9, with “In” for “To evaluate this aspect, we investigated the viability of SW620 colon cancer cells and their multidrug-resistant variants (overexpressing ABCB1, ABCC1, and ABCG2) exposed to 1 and 10 μM 4a–e using a neutral red uptake assay (Table ). In”
as §1, §2, §3, §4

[5] = test system: ABCG2-overexpressing SW620C cells; experiment: MDR reversal assay (ERP), SW620C; format: cell-based, human; conditions: SW620C, drug alone, n = 3
Excerpt: as §5, §2, §6, §7, §8

[6] = test system: ABC-overexpressing cancer cells; parameters: method as in PMID 27326336; conditions: earlier finding; citation mark lost in the text, probably ref 20; cited from earlier work
[7] = test system: SW620D cells (doxorubicin-resistant); experiment: Neutral red uptake viability assay, SW620D; format: cell-based, human; conditions: Homo sapiens, substance alone (xlsx), read-out: SW620D IC50
Procedure: as §9, with “In” for “To evaluate this aspect, we investigated the viability of SW620 colon cancer cells and their multidrug-resistant variants (overexpressing ABCB1, ABCC1, and ABCG2) exposed to 1 and 10 μM 4a–e using a neutral red uptake assay (Table ). In”
as §1, §2, §6, §7, §8

[8] = test system: SW620M cells (methotrexate-resistant); experiment: Neutral red uptake viability assay, SW620M; format: cell-based, human; conditions: Homo sapiens, substance alone (xlsx), read-out: SW620M IC50
Procedure: as §9, with “In” for “To evaluate this aspect, we investigated the viability of SW620 colon cancer cells and their multidrug-resistant variants (overexpressing ABCB1, ABCC1, and ABCG2) exposed to 1 and 10 μM 4a–e using a neutral red uptake assay (Table ). In”
as §1, §2, §3, §4

[9] = test system: ABCC1-overexpressing SW620M cells; experiment: MDR reversal assay (ERP), SW620M; format: cell-based, human; conditions: Homo sapiens; SW620M, drug alone, n = 3
Excerpt: as §5, §2, §6, §7, §8

[10] = test system: ABCB1-overexpressing SW620V cells; experiment: MDR reversal assay (ERP), SW620V; format: cell-based, human; conditions: Homo sapiens; SW620V, drug alone, n = 3
Excerpt: as §5, §2, §6, §7, §8

[11] = test system: SW620V cells (vincristine-resistant); experiment: Neutral red uptake viability assay, SW620V; format: cell-based, human; conditions: Homo sapiens, substance alone (xlsx), read-out: SW620V IC50
Procedure: as §9, with “In” for “To evaluate this aspect, we investigated the viability of SW620 colon cancer cells and their multidrug-resistant variants (overexpressing ABCB1, ABCC1, and ABCG2) exposed to 1 and 10 μM 4a–e using a neutral red uptake assay (Table ). In”
as §1, §2, §6, §7, §8

[12] = test system: ABCB1-overexpressing SW620E cells; experiment: MDR reversal assay (ERP), SW620E; format: cell-based, human; conditions: Homo sapiens; SW620E, drug alone, n = 3
Excerpt: as §5, §2, §6, §7, §8

[13] = test system: SW620E cells (etoposide-resistant); experiment: Neutral red uptake viability assay, SW620E; format: cell-based, human; conditions: Homo sapiens, substance alone (xlsx), read-out: SW620E IC50
Procedure: as §9, §1, §2, §3, §4

## COc1ccc2c(C[C@@H]3NC(=O)[C@@H]4CCCN4C3=O)c(CC=C(C)C)[nH]c2c1 [TrpA, tryprostatin A, reference compound]
MRC-5 fibroblasts
  survival rate: 97 ± 11%

## O=C1c2c(O)ccc(O)c2C(=O)c2c(NCCNCCO)ccc(NCCNCCO)c21 [Mitoxantrone, reference compound]
SW620 cells [1]; Homo sapiens, SW-620
  IC50: 151 nM
SW620 cells [2]; Homo sapiens, SW-620
  IC50: 151 nM
[3]
  IC50: 6.36 µM
[4]
  IC50: 6.36 µM

## N.N.[Cl][Pt][Cl] [Cisplatin, reference compound]
SW620 cells [1]
  IC50: 4340 nM
SW620 cells [2]
  IC50: 4340 nM
[5]
  IC50: 27.9 µM

## CC(C)(C)c1[nH]cnc1/C=c1\[nH]c(=O)/c(=C/c2ccccc2)[nH]c1=O [plinabulin]
[6]
  activity against ABC-overexpressing cancer cells: inactive

## COc1cccc2c1C(=O)c1c(O)c3c(c(O)c1C2=O)C[C@@](O)(C(=O)CO)C[C@@H]3O[C@H]1C[C@H](N)[C@H](O)[C@H](C)O1 [Doxorubicin, reference compound]
[7]
  IC50: 4.26 µM
SW620 cells [1]; Homo sapiens, SW-620
  IC50: 342 nM
SW620 cells [2]; Homo sapiens, SW-620
  IC50: 342 nM

## CN(Cc1cnc2nc(N)nc(N)c2n1)c1ccc(C(=O)N[C@@H](CCC(=O)O)C(=O)O)cc1 [Methotrexate, reference compound]
[8]
  IC50: 54.1 µM
[9]
  IC50: 54.1 µM
SW620 cells [1]; Homo sapiens, SW-620
  IC50: 6280 nM
SW620 cells [2]; Homo sapiens, SW-620
  IC50: 6280 nM

## CC[C@]1(O)C[C@H]2CN(CCc3c([nH]c4ccccc34)[C@@](C(=O)OC)(c3cc4c(cc3OC)N(C=O)[C@H]3[C@@](O)(C(=O)OC)[C@H](OC(C)=O)[C@]5(CC)C=CCN6CC[C@]43[C@@H]65)C2)C1 [Vincristine, reference compound]
SW620 cells [1]; Homo sapiens, SW-620
  IC50: 125 nM
SW620 cells [2]; Homo sapiens, SW-620
  IC50: 125 nM
[10]
  IC50: 24.3 µM
[11]
  IC50: 24.3 µM

## COc1cc([C@@H]2c3cc4c(cc3[C@@H](O[C@@H]3O[C@@H]5CO[C@@H](C)O[C@H]5[C@H](O)[C@H]3O)[C@H]3COC(=O)[C@H]23)OCO4)cc(OC)c1O [Etoposide, reference compound]
SW620 cells [1]; Homo sapiens, SW-620
  IC50: 2600 nM
SW620 cells [2]; Homo sapiens, SW-620
  IC50: 2600 nM
[12]
  IC50: 16 µM
[13]
  IC50: 16 µM
